Data taken from US20230135894A1, “MK2 DEGRADERS AND USES THEREOF” (Kymera Therapeutics, Inc., priority 2021, published 2023).

Assays:
[1] = target: T1, MK2 (Homo sapiens, UniProt P49137); experiment: MK2 degradation in human SW1353 cells (MSD, 24 h); type: cell-based; set-up: endogenous in cells; host or cells: SW-1353 (ATCC HTB-94); key to MK2 MSD SW 1353 24 h Dmax %: —: “-”=not tested or inactive; conditions: for Dmax: read-out: MK2 MSD SW 1353 24 h Dmax %; for DC50: read-out: MK2 MSD SW1353 degradation 24 h GMean External Abs DC50
Outline: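 DC50 derived by 4-parameter logistic fit, with DMSO-treated signal as top and lysis-buffer signal as bottom. Remaining MK2 was measured by MSD electrochemiluminescent sandwich assay in RIPA lysates of human SW1353 cells exposed for 24 h at 37 °C to serially diluted compound in 0.1% DMSO.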

[2] = target: T1, MK2; experiment: MK2 degradation in human THP-1 monocytic cells (MSD, 24 h); type: cell-based; set-up: endogenous in cells; conditions: for Dmax: THP-1, THP-1 cells; for DC50: THP-1 cells, read-out: MK2 MSD THP-1 degradation 24 h GMean External Abs DC50
Outline: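 Readout: residual MK2 protein in THP-1 lysates, measured by MSD electrochemiluminescence sandwich assay after 24 h compound exposure (≤10-point serial dilutions, 0.1% DMSO, 37 °C). Curves normalised between lysis-buffer and DMSO-cell signals; DC50 by 4-parameter logistic fit.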

T1 sequence (P49137 whole entry): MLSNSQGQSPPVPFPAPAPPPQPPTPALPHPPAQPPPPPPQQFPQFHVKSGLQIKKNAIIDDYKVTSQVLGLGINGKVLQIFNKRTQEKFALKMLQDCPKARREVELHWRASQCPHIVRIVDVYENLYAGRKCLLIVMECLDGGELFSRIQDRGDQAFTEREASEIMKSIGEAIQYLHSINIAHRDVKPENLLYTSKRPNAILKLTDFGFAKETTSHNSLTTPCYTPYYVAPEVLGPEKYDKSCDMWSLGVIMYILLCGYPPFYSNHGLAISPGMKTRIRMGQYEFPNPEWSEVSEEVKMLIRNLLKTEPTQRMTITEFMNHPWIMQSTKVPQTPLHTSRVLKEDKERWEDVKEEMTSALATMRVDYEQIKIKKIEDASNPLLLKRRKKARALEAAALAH

Compound: C[C@@H]1CNc2c(sc3ccc4nc(-c5ccc(N6CCC(CN7CCN(c8cccc9c8n(C)c(=O)n9C8CCC(=O)NC8=O)CC7)CC6)cc5F)ccc4c23)C(=O)N1 (some centres unmarked) [Compound I-307]
- Dmax [1]: > 75%
- DC50 [1]: 1 to 10 nM
- Dmax [2]: > 75%
- DC50 [2]: 1 to 10 nM

Compound: Cn1c(=O)n(C2CCC(=O)NC2=O)c2cccc(CCCCCCCCN3CCC4(CC3)CNC(=O)c3c4[nH]c4c3CCc3cnc(-c5ccccc5F)cc3-4)c21 (centres unmarked) [Compound I-309]
- MK2 MSD SW 1353 24 h Dmax % [1]: —
- DC50 [1]: > 100 nM
- Dmax [2]: < 50%
- DC50 [2]: > 100 nM

Compound: C[C@@H]1CNc2c(sc3ccc4nc(-c5cccc(N6CCC(CN7CCN(c8cccc9c(N%10CCC(=O)NC%10=O)cncc89)CC7)CC6)c5)ccc4c23)C(=O)N1 [Compound I-310]
- Dmax [1]: > 75%
- DC50 [1]: 1 to 10 nM
- Dmax [2]: > 75%
- DC50 [2]: 1 to 10 nM

Compound: C[C@@H]1CNc2c(sc3ccc4nc(-c5ccc(N6CCC(CN7CCC(c8cccc9c(N%10CCC(=O)NC%10=O)cncc89)CC7)CC6)cc5)ccc4c23)C(=O)N1 [Compound I-311]
- Dmax [1]: > 75%
- DC50 [1]: 1 to 10 nM
- Dmax [2]: > 75%
- DC50 [2]: 1 to 10 nM

Compound: C[C@@H]1CNc2c(sc3ccc4nc(-c5cccc(N6CCC(CN7CCC(c8cccc9c(N%10CCC(=O)NC%10=O)cncc89)CC7)CC6)c5)ccc4c23)C(=O)N1 [Compound I-312]
- Dmax [1]: > 75%
- DC50 [1]: 1 to 10 nM
- Dmax [2]: > 75%
- DC50 [2]: 1 to 10 nM

Compound: C[C@@H]1CNc2c(sc3ccc4nc(-c5ccc(N6CCC(CN7CCN(c8ccc9c(c8)CN(C8CCC(=O)NC8=O)C9=O)CC7)CC6)cc5)ccc4c23)C(=O)N1 (some centres unmarked) [Compound I-313]
- Dmax [1]: > 75%
- DC50 [1]: 1 to 10 nM
- Dmax [2]: > 75%
- DC50 [2]: 1 to 10 nM

Compound: C[C@@H]1CNc2c(sc3ccc4nc(-c5ccc(N6CCC(CN7CCN(c8ccc9c(c8)n(C)c(=O)n9C8CCC(=O)NC8=O)CC7)CC6)cc5)ccc4c23)C(=O)N1 (some centres unmarked) [Compound I-314]
- Dmax [1]: > 75%
- DC50 [1]: < 1 nM
- Dmax [2]: > 75%
- DC50 [2]: < 1 nM

Compound: C[C@@H]1CNc2c(sc3ccc4nc(-c5ccc(N6CCC(CN7CCN(c8cccc9c8n(C)c(=O)n9C8CCC(=O)NC8=O)CC7)CC6)cc5)ccc4c23)C(=O)N1 (some centres unmarked) [Compound I-315]
- Dmax [1]: > 75%
- DC50 [1]: 1 to 10 nM
- Dmax [2]: > 75%
- DC50 [2]: 1 to 10 nM

Compound: Cn1c(=O)n(C2CCC(=O)NC2=O)c2cccc(N3CCC(CN4CCC5(CC4)CNC(=O)c4c5[nH]c5c4CCc4cnc(-c6ccccc6F)cc4-5)CC3)c21 (centres unmarked) [Compound I-316]
- Dmax [1]: < 50%
- DC50 [1]: > 100 nM
- Dmax [2]: < 50%
- DC50 [2]: > 100 nM

Compound: C[C@@H]1CNc2c(sc3ccc4nc(-c5ccc(N6CCC(CN7CCN(c8cccc9c(N%10CCC(=O)NC%10=O)cncc89)CC7)CC6)cc5)ccc4c23)C(=O)N1 [Compound I-317]
- Dmax [1]: > 75%
- DC50 [1]: 1 to 10 nM
- Dmax [2]: > 75%
- DC50 [2]: < 1 nM

Compound: C[C@@H]1CNc2c(sc3ccc4nc(-c5cccc(N6CCN(C(=O)COCCOCCc7cccc8c7n(C)c(=O)n8C7CCC(=O)N(C)C7=O)CC6)c5)ccc4c23)C(=O)N1 (some centres unmarked) [Compound I-318]
- Dmax [1]: < 50%
- DC50 [1]: > 100 nM
- Dmax [2]: < 50%
- DC50 [2]: > 100 nM

Compound: C[C@@H]1CNc2c(sc3ccc4nc(N5CCC6(CCN(CC7CCN(c8ccc9c(c8)n(C)c(=O)n9C8CCC(=O)NC8=O)CC7)CC6)CC5)ccc4c23)C(=O)N1 (some centres unmarked) [Compound I-389]
- Dmax [1]: < 50%
- DC50 [1]: > 100 nM
- Dmax [2]: < 50%
- DC50 [2]: > 100 nM

Compound: C[C@@H]1CNc2c(sc3ccc4nc(N5CC6(CCN(CC7CCN(c8ccc9c(c8)n(C)c(=O)n9C8CCC(=O)NC8=O)CC7)CC6)C5)ccc4c23)C(=O)N1 (some centres unmarked) [Compound I-390]
- Dmax [1]: < 50%
- DC50 [1]: > 100 nM
- Dmax [2]: < 50%
- DC50 [2]: > 100 nM

Compound: C[C@@H]1CNc2c(sc3ccc4nc(N5CCC(CN6CCC7(CC6)CCN(c6ccc8c(c6)n(C)c(=O)n8C6CCC(=O)NC6=O)CC7)CC5)ccc4c23)C(=O)N1 (some centres unmarked) [Compound I-391]
- Dmax [1]: > 75%
- DC50 [1]: < 1 nM
- Dmax [2]: > 75%
- DC50 [2]: < 1 nM

Compound: C[C@@H]1CNc2c(sc3ccc4nc(N5CC6(CCN(C7CCN(c8ccc9c(c8)n(C)c(=O)n9C8CCC(=O)NC8=O)CC7)CC6)C5)ccc4c23)C(=O)N1 (some centres unmarked) [Compound I-393]
- Dmax [1]: < 50%
- DC50 [1]: > 100 nM
- Dmax [2]: < 50%
- DC50 [2]: > 100 nM

Compound: C[C@@H]1CNc2c(sc3ccc4nc(N5CCC(N6CCC7(CCN(c8ccc9c(c8)n(C)c(=O)n9C8CCC(=O)NC8=O)CC7)CC6)CC5)ccc4c23)C(=O)N1 (some centres unmarked) [Compound I-395]
- Dmax [1]: > 75%
- DC50 [1]: < 1 nM
- Dmax [2]: > 75%
- DC50 [2]: 1 to 10 nM

Compound: C[C@@H]1CNc2c(sc3ccc4nc(N5CCC(N6CCC7(CC6)CN(c6ccc8c(c6)n(C)c(=O)n8C6CCC(=O)NC6=O)C7)CC5)ccc4c23)C(=O)N1 (some centres unmarked) [Compound I-402]
- Dmax [1]: > 75%
- DC50 [1]: < 1 nM
- Dmax [2]: 50 to 75%
- DC50 [2]: 1 to 10 nM

Compound: Cn1c(=O)n(C2CCC(=O)NC2=O)c2ccc(N3CC(CN4CCN(c5ccc(-c6nccc(-c7cc8c([nH]7)C7(CC7)CNC8=O)n6)c(F)c5)CC4)C3)cc21 (centres unmarked) [Compound I-403, 3-(5-(3-((4-(3-fluoro-4-(4-(4′-oxo-1′,4′,5′,6′-tetrahydrospiro[cyclopropane-1,7′-pyrrolo[3,2-c]pyridin]-2′-yl)pyrimidin-2-yl)phenyl)piperazin-1-yl)methyl)azetidin-1-yl)-3-methyl-2-oxo-2,3-dihydro-1H-benzo[d]imidazol-1-yl)piperidine-2,6-dionee]
- Dmax [1]: > 75%
- DC50 [1]: < 1 nM
- Dmax [2]: > 75%
- DC50 [2]: < 1 nM

Compound: Cn1c(=O)n(C2CCC(=O)NC2=O)c2ccc(N3CC(CN4CCN(c5ccc(-c6nccc(-c7cc8c([nH]7)C7(CCCC7)CNC8=O)n6)cc5)CC4)C3)cc21 (centres unmarked) [Compound I-405]
- Dmax [1]: > 75%
- DC50 [1]: < 1 nM
- Dmax [2]: > 75%
- DC50 [2]: < 1 nM

Compound: Cn1c(=O)n(C2CCC(=O)NC2=O)c2ccc(N3CCC(CN4CCN(c5ccc(-c6cc(-c7cc8c(s7)CCNC8=O)ccn6)cc5)CC4)CC3)cc21 (centres unmarked) [Compound I-406]
- Dmax [1]: < 50%
- DC50 [1]: > 100 nM
- Dmax [2]: < 50%
- DC50 [2]: > 100 nM

Compound: Cn1c(=O)n(C2CCC(=O)NC2=O)c2ccc(N3CC(CN4CCN(c5ccc(-c6cc(-c7cc8c(s7)CCNC8=O)ccn6)cc5)CC4)C3)cc21 (centres unmarked) [Compound I-407]
- MK2 MSD SW 1353 24 h Dmax % [1]: —
- DC50 [1]: > 100 nM
- Dmax [2]: < 50%
- DC50 [2]: > 100 nM

Compound: Cn1c(=O)n(C2CCC(=O)NC2=O)c2ccc(N3CCC4(CC3)CC(N3CCN(c5cc(-c6cc7c([nH]6)C6(CC6)CNC7=O)ccn5)CC3)C4)cc21 (centres unmarked) [Compound I-408]
- MK2 MSD SW 1353 24 h Dmax % [1]: —
- DC50 [1]: > 100 nM
- Dmax [2]: < 50%
- DC50 [2]: > 100 nM

Compound: C[C@@H]1CNc2c(sc3ccc4nc(-c5ccc(N6CC7(CCN(c8ccc9c(c8)n(C)c(=O)n9C8CCC(=O)NC8=O)CC7)C6)nc5)ccc4c23)C(=O)N1 (stereo partly drawn) [Compound I-409, 3-(3-methyl-5-(2-(5-((R)-10-methyl-8-oxo-9,10,11,12-tetrahydro-8H-[1,4]diazepino[5′,6′:4,5]thieno[3,2-f]quinolin-3-yl)pyridin-2-yl)-2,7-diazaspiro[3.5]nonan-7-yl)-2-oxo-2,3-dihydro-1H-benzo[d]imidazol-1-yl)piperidine-2,6-dione]
- Dmax [1]: > 75%
- DC50 [1]: < 1 nM
- Dmax [2]: > 75%
- DC50 [2]: < 1 nM

Compound: C[C@@H]1CNc2c(sc3ccc4nc(N5CCC(N6CCC7(CCN(c8ccc9c(c8)n(C)c(=O)n9C8CCC(=O)NC8=O)CC7)C6)CC5)ccc4c23)C(=O)N1 (some centres unmarked) [Compound I-410]
- Dmax [1]: > 75%
- DC50 [1]: < 1 nM
- Dmax [2]: > 75%
- DC50 [2]: < 1 nM

Compound: C[C@@H]1CNc2c(sc3ccc4nc(N5CCCN(C6CC7(CCN(c8ccc9c(c8)n(C)c(=O)n9C8CCC(=O)NC8=O)CC7)C6)CC5)ccc4c23)C(=O)N1 (some centres unmarked) [Compound I-411]
- Dmax [1]: 50 to 75%
- DC50 [1]: 1 to 10 nM
- Dmax [2]: 50 to 75%
- DC50 [2]: 10 to 100 nM

Compound: C[C@@H]1CN(C)c2c(sc3ccc4nc(-c5ccc(N6CCN(CC7CN(c8ccc9c(c8)n(C)c(=O)n9C8CCC(=O)NC8=O)C7)CC6)nc5)ccc4c23)C(=O)N1 (some centres unmarked) [Compound I-412]
- Dmax [1]: > 75%
- DC50 [1]: < 1 nM
- Dmax [2]: > 75%
- DC50 [2]: < 1 nM

Compound: C[C@@H]1CN(C)c2c(sc3ccc4nc(-c5ccc(N6CCN(CCc7cccc8c7n(C)c(=O)n8C7CCC(=O)NC7=O)CC6)cc5)ccc4c23)C(=O)N1 (some centres unmarked) [Compound I-413]
- Dmax [1]: > 75%
- DC50 [1]: 1 to 10 nM
- Dmax [2]: > 75%
- DC50 [2]: < 1 nM

Compound: C[C@@H]1CN(C)c2c(sc3ccc4nc(-c5ccc(N6CCN(CCc7cccc8c7n(C)c(=O)n8C7CCC(=O)NC7=O)CC6)nc5)ccc4c23)C(=O)N1 (some centres unmarked) [Compound I-414]
- Dmax [1]: > 75%
- DC50 [1]: < 1 nM
- Dmax [2]: > 75%
- DC50 [2]: 1 to 10 nM

Compound: Cn1c(=O)n(C2CCC(=O)NC2=O)c2ccc(N3CC(CN4CCN(c5ccc(-c6cc(-c7cc8c([nH]7)C7(CCCC7)CNC8=O)ccn6)cc5)CC4)C3)cc21 (centres unmarked) [Compound I-415]
- Dmax [1]: > 75%
- DC50 [1]: < 1 nM
- Dmax [2]: > 75%
- DC50 [2]: < 1 nM
